From US20260224520A1, “ABC TRANSPORTER EXPRESSION PROMOTING AGENT, CHOLESTEROL EXCRETION PROMOTING AGENT, INFLAMMATORY CYTOKINE PRODUCTION INHIBITING AGENT, ANTI-INFLAMMATORY AGENT, AND ARTERIOSCLEROSIS PREVENTING AGENT” (MEIJI CO., LTD., priority 2022, published 2026)
“Also recorded” adds a separate entry of the source.

Legend:
[1] = test system: Human macrophage-like THP-1 cells; experiment: Cholesterol excretion promoting activity of fatty acids, fluorometry, 24 h pre-culture with the substance; type: cell-based; settings: for cholesterol excretion promoting activity (in words): conclusion from Tables 5A and 8
Description: Human macrophage-like THP-1 cells were seeded in a 96-well plate so as to be 2.0×10^5 cells/well, and allowed to differentiate for 72 hours. The medium was then replaced with RPMI 1640 medium containing 0.02% by mass of bovine serum albumin (BSA), 10 to 40 μg/mL (final concentration in the well) of 10-hydroxypalmitic acid (Angene) was added, and the cells were cultured for 24 hours. The medium was then replaced with Dulbecco's Modified Eagle Medium (DMEM) containing 0.02% by mass of BSA and 6 mM of sodium taurocholate, and the medium was recovered after 4 hours. The level of cholesterol excreted from the cells (the cholesterol level in the recovered medium) was measured in the same manner as in Example 1 to evaluate the cholesterol excretion promoting activity of 10-hydroxypalmitic acid (n=3).
In the same manner as in Example 5A, the cholesterol excretion promoting activities of 10-hydroxypalmitic acid and other hydroxypalmitic acids (2-hydroxypalmitic acid (Tokyo Chemical Industry Co., Ltd.), 3-hydroxypalmitic acid (Sigma-Aldrich), 16-hydroxypalmitic acid (Tokyo Chemical Industry Co., Ltd.), and 10-hydroxypalmitic acid), which may be contained in Camembert cheese, as well as palmitic acid to which no hydroxyl group was added (Sigma) were evaluated (n=6 to 11).

[2] = test system: IL-1; experiment: IL-1 mRNA expression level by real-time PCR in THP-1 cells with or without inflammation induction; type: cell-based, Human; settings: 24 h, DMSO-control = 1
Description: (§1) Human macrophage-like THP-1 cells were seeded in a 24-well plate so as to be 1.0×10^6 cells/well, and allowed to differentiate for 72 hours. The medium was then replaced with RPMI 1640 medium containing: 0.02% by mass of bovine serum albumin (BSA); either dimethyl sulfoxide (DMSO) or 20 μg/mL of 10-hydroxypalmitic acid; and either 50 μg/mL of oxidized LDL (oxLDL) (Invitrogen), 50 μg/mL of acetylated LDL (acLDL) (Invitrogen), 5 μM of T0901317+5 μM of 9-cis-retinoic acid (T0+RA), or 1 μg/mL of lipopolysaccharide (LPS) (Sigma), or replaced with RPMI 1640 medium (control) containing: 0.02% by mass of bovine serum albumin (BSA); and either DMSO or 20 μg/mL 10-hydroxypalmitic acid, but not containing any of oxLDL, acLDL, T0+RA, and LPS, and the macrophage-like cells were cultured for 24 hours to induce inflammation. The medium was then replaced with Dulbecco's Modified Eagle Medium (DMEM) containing 0.02% by mass of BSA and 6 mM of sodium taurocholate, and the cells were cultured for 4 hours. The cells were then recovered, and the mRNA expression levels of IL-1 and IL-6, which are inflammatory markers (inflammatory cytokines), were measured by real-time PCR in the same manner as in Example 6 (n=4 to 6).

[3] = test system: ABCA1; experiment: ABCA1 protein expression level by Western blotting in THP-1 cells; type: cell-based, Human; settings: 20 μg/mL, 24 h; corrected with actin; DMSO = 1; n=3
Description: (§2) The ABCA1 and ABCG1 protein expression levels were evaluated. Specifically, cells cultured in the same manner as in Example 6 were recovered, SDS-PAGE and blotting were carried out using the 10% minigel shown in Table 7A and, after blocking, the protein expression levels were measured by Western blotting using a primary antibody (anti-mouse monoclonal ABCA1 (KM3110) or anti-rabbit polyclonal ABCG1 (H65) (Novus)) and anti-actin (Sigma) as a loading control (n=3). The protein expression levels were quantified with CS Analyzer 4 […]. The ABCA1 and ABCG1 protein expression levels were each corrected with the actin protein expression level.

[4] = test system: Human macrophage-like THP-1 cells; experiment: Cholesterol excretion promoting activity in an inflammation-induced state, fluorometry (Amplex Red); type: cell-based; settings: for Cholesterol excretion level (Average # standard deviation): DMSO-control = 1, n=4
Description: Human macrophage-like THP-1 cells were seeded in a 24-well plate so as to be 1.0×10^6 cells/well, and allowed to differentiate for 72 hours. The medium was then replaced with RPMI 1640 medium containing: 0.02% by mass of bovine serum albumin (BSA); either dimethyl sulfoxide (DMSO) or 20 μg/mL of 10-hydroxypalmitic acid; and either 50 μg/mL of oxidized LDL (oxLDL) (Invitrogen), 50 μg/mL of acetylated LDL (acLDL) (Invitrogen), 5 μM of T0901317+5 μM of 9-cis-retinoic acid (T0+RA), or 1 μg/mL of LPS (Sigma), or replaced with RPMI 1640 medium (control) containing: 0.02% by mass of BSA; and either DMSO or 20 μg/mL 10-hydroxypalmitic acid, but not containing any of oxLDL, acLDL, T0+RA, and LPS, and the macrophage-like cells were cultured for 24 hours to induce inflammation. The medium was then replaced with Dulbecco's Modified Eagle Medium (DMEM) containing 0.02% by mass of BSA and 6 mM of sodium taurocholate, and the cells were cultured for 4 hours. The medium was then recovered, and the level of cholesterol excreted from the cells (the cholesterol level in the recovered medium) was measured by fluorometry using Amplex Red to evaluate the cholesterol excretion promoting activity of 10-hydroxypalmitic acid in an inflammation-induced state (n=4).

[5] = test system: ABCG1; experiment: ABCG1 mRNA expression level by real-time PCR in THP-1 cells; type: cell-based, Human; settings: 20 μg/mL, 24 h; corrected with 18S ribosomal RNA; EtOH = 1; n=3
Description: (§3) Since the cholesterol excretion promoting activity of 10-hydroxypalmitic acid was confirmed, the effect of 10-hydroxypalmitic acid on ABC transporters was evaluated. Specifically, human macrophage-like THP-1 cells were seeded in a 24-well plate so as to be 1.0×10^6 cells/well, and allowed to differentiate for 72 hours. The medium was then replaced with RPMI 1640 medium containing 0.02% by mass of bovine serum albumin (BSA), 20 μg/mL (final concentration in the well) of 10-hydroxypalmitic acid was added, the cells were cultured for 24 hours, then mRNA was extracted using RNeasy Minikit (Qiagen), reverse transcription was carried out using ReverTra Ace (Registered trademark) qPCR RT Master Mix with gDNA Remover (Toyobo), and the ABCA1 and ABCG1 mRNA expression levels were measured by real-time PCR using Thermal Cycler Dice TP800 (Takara). 18S ribosomal RNA was used as a control gene. The ABCA1 and ABCG1 mRNA expression levels were each corrected with the mRNA expression level of the control gene, and the ABC transporter expression promoting activity of 10-hydroxypalmitic acid was evaluated (n=3).

[6] = test system: Human macrophage-like THP-1 cells; experiment: Cholesterol excretion promoting activity of 10-hydroxypalmitic acid by colorimetry; type: cell-based
Description: The cholesterol excretion promoting activity of 10-hydroxypalmitic acid was also examined by colorimetry. Specifically, human macrophage-like THP-1 cells were seeded in a 6-well plate so as to be 4.0×10^6 cells/well, and allowed to differentiate for 72 hours. The medium was then replaced with RPMI 1640 medium containing 0.02% by mass of bovine serum albumin (BSA), 20 μg/mL (final concentration in the well) of 10-hydroxypalmitic acid (Angene) was added, and the cells were cultured for 24 hours and then recovered. Lipids were then extracted using methanol and chloroform, and the level of cholesterol excreted from the cells (the cholesterol level in the recovered medium) was measured using a free cholesterol assay kit (Fujifilm Wako Pure Chemical Corporation) to evaluate the cholesterol excretion promoting activity of 10-hydroxypalmitic acid (n =3).

[7] = test system: IL-6; experiment: IL-6 mRNA expression level by real-time PCR in THP-1 cells with or without inflammation induction; type: cell-based, Human; settings: 24 h, DMSO-control = 1
Description: as §1

[8] = test system: ABCG1; experiment: ABCG1 protein expression level by Western blotting in THP-1 cells; type: cell-based, Human; settings: 20 μg/mL, 24 h; corrected with actin; DMSO = 1; n=3
Description: as §2

[9] = test system: ABCA1; experiment: ABCA1 mRNA expression level by real-time PCR in THP-1 cells; type: cell-based, Human; settings: 20 μg/ml, 24 h; corrected with 18S ribosomal RNA; EtOH = 1; n=3
Description: as §3

[10] = same manner as Example 5A, concentration not given, EtOH = 1, n=6 to 11
[11] = 20 μg/mL with T0 + RA (5 μM each)
[12] = 20 μg/mL, Control (no inducer), n=4 to 6

Q: With CCCCCCCCCCCCCCC(O)C(=O)O (stereo not drawn) [2-Hydroxypalmitic acid, 2-hydroxypalmitic acid, reference compound] as the molecule, how does the “Cholesterol excretion level (Average ± standard deviation)” value [1, 10] read?
A: The value was 0.970 ± 0.175 relative value.

Q: Which “Cholesterol excretion level (Average ± standard deviation)” value [1, 10] does the source give for CCCCCCCCCCCCCC(O)CC(=O)O (stereo not drawn) [3-Hydroxypalmitic acid, 3-hydroxypalmitic acid, reference compound] here?
A: Its value is 1.094 ± 0.271 relative value.

Q: Which “IL-1 mRNA expression level (Average ± standard deviation)” value ([2]; 20 μg/mL with 1 μg/mL LPS) does the source give for CCCCCCC(O)CCCCCCCCC(=O)O (stereo not drawn) [10-hydroxypalmitic acid] here?
A: The value was 0.450 ± 0.390 relative value.

Q: What about the “IL-1 mRNA expression level (Average ± standard deviation)” value ([2]; 20 μg/mL with 50 μg/mL acLDL) of the same molecule?
A: The value was 0.389 ± 0.067 relative value.

Q: What about the “IL-1 mRNA expression level (Average ± standard deviation)” value ([2]; 20 μg/mL with 50 μg/mL oxLDL) of the same molecule?
A: The value was 0.419 ± 0.184 relative value.

Q: What about the “IL-1 mRNA expression level (Average ± standard deviation)” value [2, 11] of the same molecule?
A: The value was 0.185 ± 0.059 relative value.

Q: What about the “IL-1 mRNA expression level (Average ± standard deviation)” value [2, 12] of the same molecule?
A: The value was 0.200 ± 0.046 relative value.

Q: What about the “ABCA1 protein expression level (Average ± standard deviation)” value [3] of the same molecule?
A: Its value is 2.607 ± 0.559 relative value.

Q: And the “Cholesterol excretion level (Average # standard deviation)” value ([4]; 20 μg/mL with 1 μg/mL LPS)?
A: The value was 9.320 ± 3.477 relative value.

Q: What about the “Cholesterol excretion level (Average # standard deviation)” value ([4]; 20 μg/mL with 50 μg/mL acLDL) of the same molecule?
A: The value was 1.821 ± 0.426 relative value.

Q: And the “Cholesterol excretion level (Average # standard deviation)” value ([4]; 20 μg/mL with 50 μg/mL oxLDL)?
A: Its value is 2.389 ± 0.628 relative value.

Q: And the “Cholesterol excretion level (Average # standard deviation)” value [4, 11]?
A: Its value is 33.159 ± 10.920 relative value.

Q: And the “Cholesterol excretion level (Average # standard deviation)” value ([4]; 20 μg/mL, Control (no inducer))?
A: The value was 3.588 ± 1.302 relative value.

Q: And the “cholesterol excretion promoting activity (in words)” value ([4]; inflammation-induced state or ABC transporters induced by T0+RA, conclusion from Table 10)?
A: Its value is “had a cholesterol excretion promoting activity”.

Q: And the “ABCG1 mRNA expression level (Average ± standard deviation)” value [5]?
A: Its value is 2.953 ± 0.195 relative value.

Q: What about the “Cholesterol excretion level (Average ± standard deviation)” value ([6]; 20 μg/mL, 24 h, DMSO = 1, n=3) of the same molecule?
A: Its value is 1.569 ± 0.317 relative value.

Q: What about the “cholesterol excretion promoting activity (in words)” value ([6]; conclusion from Table 5B) of the same molecule?
A: The value was “confirmed”.

Q: What about the “Cholesterol excretion level (Average ± standard deviation)” value ([1]; 10 μg/mL, 24 h, DMSO = 1, n=3) of the same molecule?
A: Its value is 1.553 ± 0.102 relative value.

Q: What about the “Cholesterol excretion level (Average ± standard deviation)” value ([1]; 20 μg/mL, 24 h, DMSO = 1, n=3) of the same molecule?
A: Its value is 1.685 ± 0.138 relative value.

Q: And the “Cholesterol excretion level (Average ± standard deviation)” value ([1]; 30 μg/mL, 24 h, DMSO = 1, n=3)?
A: Its value is 2.313 ± 0.479 relative value.

Q: What about the “Cholesterol excretion level (Average ± standard deviation)” value ([1]; 40 μg/mL, 24 h, DMSO = 1, n=3) of the same molecule?
A: Its value is 1.872 ± 0.374 relative value.

Q: What about the “cholesterol excretion promoting activity (in words)” value [1] of the same molecule?
A: The value was “concentration-dependent cholesterol excretion promoting activity; also recorded: had a cholesterol excretion promoting activity”.

Q: What about the “Cholesterol excretion level (Average ± standard deviation)” value [1, 10] of the same molecule?
A: The value was 1.331 ± 0.500 relative value.

Q: And the “IL-6 mRNA expression level (Average ± standard deviation)” value ([7]; 20 μg/mL with 1 μg/mL LPS)?
A: The value was 0.530 ± 0.107 relative value.

Q: And the “IL-6 mRNA expression level (Average ± standard deviation)” value ([7]; 20 μg/mL with 50 μg/mL acLDL)?
A: The value was 0.363 ± 0.149 relative value.

Q: And the “IL-6 mRNA expression level (Average ± standard deviation)” value ([7]; 20 μg/mL with 50 μg/mL oxLDL)?
A: The value was 0.167 ± 0.029 relative value.

Q: What about the “IL-6 mRNA expression level (Average ± standard deviation)” value [7, 11] of the same molecule?
A: Its value is 0.095 ± 0.050 relative value.

Q: What about the “IL-6 mRNA expression level (Average ± standard deviation)” value [7, 12] of the same molecule?
A: The value was 0.104 ± 0.032 relative value.

Q: And the “ABCG1 protein expression level (Average ± standard deviation)” value [8]?
A: The value was 2.541 ± 0.815 relative value.

Q: And the “ABCA1 mRNA expression level (Average ± standard deviation)” value [9]?
A: Its value is 2.870 ± 0.267 relative value.

Q: What does the source list for O=C(O)CCCCCCCCCCCCCCCO [16-hydroxypalmitic acid]?
A: cholesterol excretion promoting activity (in words) [1]: had a cholesterol excretion promoting activity; Cholesterol excretion level (Average ± standard deviation) [1, 10]: 1.406 ± 0.982 relative value

Q: For CCCCCCCCCCCCCCCC(=O)O [Palmitic acid, palmitic acid, reference compound], which “Cholesterol excretion level (Average ± standard deviation)” value [1, 10] is on record?
A: The value was 0.823 ± 0.268 relative value.
